Measured values reported in patent US9581586B2, “Approach to asthma inhaler compliance using breath measurement of tetrafluoroethane” (The Regents of the University of California, priority 2014, dated 2017).
Read-outs that look alike come from different tables or passages of the source. Each block holds one compound with its values, some of them ahead of it.

Experiments:
[1] = metabolite of HFA-134a, only in some urine samples at trace levels; cited from earlier work
[2] = Exhaled breath HFA-134a levels after asthma inhaler administration (GC with MSD); type: in vivo, human
Procedure: Study participants were randomly assigned to inhaled corticosteroid (ICS, Flovent HFA, 220 mcg, n=5) or short acting bronchodilator (Albuterol, Proventil HFA, n=5). Baseline exhaled breath sampling and standard lung function test were performed prior to the medication dispersion. After baseline measurements, the participants inhaled two puffs of either Flovent HFA (Glaxo Smith Kline) or Proventil HFA (Merck & CO., INC) using a spacer (AeroChamberPlus Flow-Vu, Monaghan). Breath sampling and lung function test were performed immediately after inhalation (<5 min), and at 2, 4, 6, 8, 24, and 48 hours post administration (see FIG. 3).
Exhaled breath samples were collected in evacuated electro-polished stainless steel canisters (volume=1.9 L). The analytic system used in this study is similar to the system described in Colman et al., 2001 (18). Briefly, 790 mL of the collected air sample is pre-concentrated in a stainless steel loop filled with glass beads and submerged in liquid nitrogen to remove the nitrogen, oxygen and argon present in the sample. The sample is re-vaporized using hot water (at approximately 80° C.) and split into five different column/detector combinations housed in three gas chromatographs (GCs) using UHP helium as the carrier gas: (1) DB-1 column (J&W; 60 m, 0.32 mm I.D., 1 μm film thickness) output to a flame ionization detector (FID); (2) DB-5 column (J&W; 30 m, 0.25 mm I.D., 1 vim film thickness) connected in series to a RESTEK 1701 column (5 m, 0.25 mm I.D., 0.5 μm film thickness) and output to an electron capture detector (ECD); (3) RESTEK 1701 column (60 m, 0.25 mm I.D., 0.50 μm film thickness) output to an ECD; (4) PLOT column (J&W GS-Alumina; 30 m, 0.53 mm I.D.) connected in series to a DB-1 column (J&W; 5 m, 0.53 mm I.D., 1.5 μm film thickness) and output to an FID; (5) DB-5 ms column (J&W; 60 m, 0.25 mm I.D., 0.5 μm film thickness) output to a quadrupole mass spectrometer detector (MSD, HP 5973). The MSD is set to operate in selected ion monitoring (SIM) mode with one ion chosen to quantify each compound in order to achieve the maximum selectivity and to avoid potential interferences. All gas chromatographs and detectors used in this study are manufactured by Hewlett Packard. The analytical system allows for the identification and quantification of different classes of volatile organic compounds (VOCs). […] Simultaneously, room air samples were also collected in the same location to quantify corresponding ambient levels of HFA-134a.

[3] = Three compartment pharmacokinetic analysis of HFA elimination in breath after Flovent HFA; type: in vivo, human; conditions: for half-life: human, exhaled breath, inhaled
Procedure: 24 hr, 36 hr, and 48 hr—post Flovent HFA administration (red and blue open circle). All sample collections were held open space. […] The calculated half-lives are 0.97, 20.7, and 442 minutes for subject #1 and 0.92, 27.6, and 355 minutes for subject #2.
As further disclosed in FIG. 5, the inventors re-defined the experiment and have performed a compartmental pharmacokinetic analysis of HFA elimination kinetics using HFA at 5 min, 7 min, 10 min, 15 min, 30 min, 1 hr, 2 hr, 3 hr, 4 hr, 6 hr, 8 hr, 12 hr. 24 hr, 36 hr, and 48 hr—post Flovent HFA administration. The HFA elimination could be modeled using three compartment pharmacokinetic analysis (Eq1). […] The elimination rate constant in each compartment, L1, L2, and L3, respectively are −0.1970, −0.0183, and −0.0013 for subject #1 and −0.1720, −0.0142, and −0.0018 for subject #2. The corresponding half-lives are 0.97, 20.7, and 442 minutes for subject #1 and 0.92, 27.6, and 355 minutes for subject #2.

[4] = Exhaled breath HFA-134a levels after asthma inhaler administration (GC with MSD); type: in vivo, human; conditions: n=1, Flovent HFA one puff per day for nine days, last ICS approximately 24 hr before sampling
[5] = 500 ppm of HFA-134a for two hours; cited from earlier work
[6] = in vivo; cited from earlier work
[7] = Albuterol subject #3 (Proventil HFA)

Compound: O=C(O)C(F)(F)F [trifluoroacetic acid]
Trifluoroacetic acid detected in urine samples [1]: less than 0.0005 % of the administered dose

Exhaled HFA-134a levels at the 2-hr time point ([2]; 2 hr post inhaler administration, range over subjects): 28000-266000 pptv
HFA concentration in breath at 48 hr post typical asthma inhaler administration ([2]; 48 hr post): still detectable
Breath HFA-134a 48 hr post medication [2, 7]: 224 pptv
Breath HFA-134a right after medication [2, 7]: 6.2 ppmv
Breath HFA-134a at 48 hour time point ([2]; ICS subject #3 (Flovent HFA)): 287 pptv
Breath HFA-134a right after drug administration ([2]; ICS subject #3 (Flovent HFA)): 179 ppmv
Breath HFA-134a at 48 hour time point ([2]; ICS subject #4 (Flovent HFA)): 351 pptv
Breath HFA-134a right after drug administration ([2]; ICS subject #4 (Flovent HFA)): 48 ppmv
Time HFA can be measured in exhaled breath after a typical single inhalation ([2]; down to parts-per-trillion levels): at least 48 hours
HFA-134a breath levels immediately after inhalation ([2]; healthy controls, Flovent HFA or Proventil HFA, immediately after inhalation): 300×10^6 pptv
Time HFA is detectable above ambient levels following an inhalation ([2]; healthy participants): up to 24 hours
Exhaled breath HFA-134a levels right after inhalation (range over subjects) ([2]; healthy participants, two puffs of asthma inhaler, right after inhalation): 3-300 ppmv
Mean (SD) levels of HFA-134a in exhaled breath at 48-hr post inhaler administration ([2]; seven of ten healthy participants, 48 hr post): 260 (138) pptv
Breath HFA-134a levels at 48 hours post inhaler administration ([2]; similar to room HFA-134a levels, also at baseline): approximately 200 pptv
half-life ([3]; subject #1, read-out: Half-life corresponding to L1): 0.97 min
half-life ([3]; subject #1, read-out: Half-life corresponding to L2): 20.7 min
half-life ([3]; subject #1, read-out: Half-life corresponding to L3): 442 min
half-life ([3]; subject #2, read-out: Half-life corresponding to L1): 0.92 min
half-life ([3]; subject #2, read-out: Half-life corresponding to L2): 27.6 min
half-life ([3]; subject #2, read-out: Half-life corresponding to L3): 355 min
Elimination rate constant L1 ([3]; subject #1, post Flovent HFA): −0.1970 reciprocal minutes
Elimination rate constant L2 ([3]; subject #1, post Flovent HFA): −0.0183 reciprocal minutes
Elimination rate constant L3 ([3]; subject #1, post Flovent HFA): −0.0013 reciprocal minutes
Elimination rate constant L1 ([3]; subject #2, post Flovent HFA): −0.1720 reciprocal minutes
Elimination rate constant L2 ([3]; subject #2, post Flovent HFA): −0.0142 reciprocal minutes
Elimination rate constant L3 ([3]; subject #2, post Flovent HFA): −0.0018 reciprocal minutes
Baseline breath HFA level of symptomatic asthma subject on ICS [4]: 710 ppt
Compound: FCC(F)(F)F [HFA-134a, 1,1,1,2-tetrafluoroethane]
Decrease of exhaled breath HFA-134a compared with HFA-134a in plasma when exposure stopped [5]: almost an order of magnitude faster
Exhaled breath HFA-134a the day after the exposure [5]: not-detectable
HFA-134a levels in blood samples [6]: below 10 % of the initially administered concentration
